Results taken from PMC10901772, “Cytotoxic naphtho- and benzofurans from an endophytic fungus Epicoccum nigrum Ann-B-2 associated with Annona squamosa fruits” (Scientific Reports, 2024).
pIC50: −log10 of the molar value. Converted amounts (≈) assume the structure as drawn. “Also recorded” adds a separate entry of the source. Read-outs that look alike come from different tables or passages of the source.

Assays:
Format in all cases: cell-based
[1] = system: Staphylococcus aureus [DSM 346]; assay: MIC, 96-well plate serial dilution assay
[2] = system: Mycobacterium smegmatis [ATCC 700084]; assay: MIC, 96-well plate serial dilution assay
[3] = system: Bacillus subtilis [DSM 10]; assay: MIC, 96-well plate serial dilution assay; conditions: for MIC: DSM10, concentration range 67 to 0.5 µg/mL
[4] = system: Mucor hiemalis [DSM 2656]; assay: MIC, 96-well plate serial dilution assay
[5] = system: Candida albicans [DSM 1665]; assay: MIC, 96-well plate serial dilution assay
[6] = system: Rhodotorula glutinis [DSM 10134]; assay: MIC, 96-well plate serial dilution assay
[7] = system: breast cancer (MCF-7); assay: In vitro cytotoxicity, MTT assay; conditions: Homo sapiens, MCF7
Procedure: (§1) In vitro cytotoxicity studies (data expressed in the form of IC50 values) were performed over a concentration range between 1 and 37 µg/mL on a panel of seven cancer cell lines including human endocervical adenocarcinoma (KB3.1), mouse fibroblasts (L929), lung cancer (A549), squamous cancer (A431), prostate cancer (PC-3), breast cancer (MCF-7), and ovary cancer (SK-OV-3) using the MTT assay as previously reported.

[8] = system: human endocervical adenocarcinoma (KB3.1); assay: In vitro cytotoxicity, MTT assay; conditions: KB 3-1, KB3.1, MTT
Procedure: as §1

[9] = system: lung cancer (A549); assay: In vitro cytotoxicity, MTT assay; conditions: Homo sapiens
Procedure: as §1

[10] = system: mouse fibroblasts (L929); assay: In vitro cytotoxicity, MTT assay
Procedure: as §1

[11] = system: ovary cancer (SK-OV-3); assay: In vitro cytotoxicity, MTT assay; conditions: Homo sapiens
Procedure: as §1

[12] = system: prostate cancer (PC-3); assay: In vitro cytotoxicity, MTT assay; conditions: for sensitivity of PC-3 (in words): PC-3 (prostate cancer)
Procedure: as §1

[13] = system: squamous cancer (A431); assay: In vitro cytotoxicity, MTT assay; conditions: Homo sapiens, A-431
Procedure: as §1

[14] = system: panel of seven cancer cell lines; assay: In vitro cytotoxicity, MTT assay, whole panel; conditions: for antiproliferative / anticancer activity (in words): panel of cancer cell lines; for pIC50: panel of seven different cancer cell lines, read-out: IC50 values, range over the panel
Procedure: as §1

[15] = system: remaining strains (S. aureus, M. smegmatis, M. hiemalis, C. albicans, R. glutinis); assay: MIC serial dilution assay, strains other than Bacillus subtilis; conditions: all tested strains except Bacillus subtilis
[16] = DSM346, concentration range 67 to 0.5 µg/mL, read-out: MIC
[17] = Mycolicibacterium smegmatis, ATCC700084, concentration range 67 to 0.5 µg/mL, read-out: MIC
[18] = DSM2656, concentration range 67 to 0.5 µg/mL, read-out: MIC
[19] = DSM1665, concentration range 67 to 0.5 µg/mL, read-out: MIC
[20] = DSM10134, concentration range 67 to 0.5 µg/mL, read-out: MIC
[21] = concentration range 67 to 0.5 µg/mL

Row | Molecule | MIC [1, 16] [µg/mL] | MIC [2, 17] [µg/mL] | MIC [3] [µg/mL] | MIC [4, 18] [µg/mL] | MIC [5, 19] [µg/mL] | MIC [6, 20] [µg/mL] | pIC50 ([7]; MCF-7, MTT, read-out: IC50) | pIC50 [8] | pIC50 ([9]; A549, MTT, read-out: IC50) | pIC50 [10] | pIC50 ([11]; SKOV-3, MTT, read-out: IC50) | pIC50 ([12]; PC-3, MTT, read-out: IC50) | pIC50 ([13]; A431, MTT, read-out: IC50) | antiproliferative / anticancer activity (in words) [14] | pIC50 [14] | further results
1 | Cc1c(O)c(O)c(O)c2c1COC2 [Compound 6, 4,5,6-trihydroxy-7-methyl-1,3-dihydroisobenzofuran] | > 67 | > 67 | > 67 | > 67 | > 67 | > 67 | 5.89 | 5.47 | 5.20 | 5.55 | 5.11 | < 4.00 | 5.14 | highest potency; also recorded: promising anticancer activities | 4.92 to 5.89 | sensitivity of PC-3 (in words) [12]: insensitive
2 | NC[C@H]1O[C@H](O[C@H]2[C@H](O)[C@@H](O[C@H]3O[C@H](CO)[C@@H](O)[C@H](N)[C@H]3O)[C@H](N)C[C@@H]2N)[C@H](O)[C@@H](O)[C@@H]1O [Kanamycin, reference compound] |  |  |  |  |  |  |  |  |  |  |  |  |  |  |  | MIC [2, 21]: 1.7^ K µg/ml
3 | CN(C)[C@@H]1C(O)=C(C(N)=O)C(=O)[C@@]2(O)C(O)=C3C(=O)c4c(O)cccc4[C@@](C)(O)[C@H]3[C@H](O)[C@@H]12 [Oxytetracycline, reference compound] |  |  | 16.6 (≈ 36.1 µM) |  |  |  |  |  |  |  |  |  |  |  |  | 
4 | Cc1c(O)c(O)c2c(c1C=O)[C@@H]1O[C@H](O2)c2c(C)c(O)c(O)c(O)c2C1=O [Compound 3, epicocconigrone A] | > 67 | > 67 | 66.6 (≈ 178 µM) | > 67 | > 67 | > 67 | 5.62 | 5.57 | 5.00 | 4.85 | 4.92 | 5.10 | 5.11 | active against all tested cell lines; also recorded: promising anticancer activities | 4.92 to 5.89 | 
5 | C[C@@H]1[C@H](O)[C@@H](C)/C=C/C=C/CC/C=C/C=C/C=C/C=C/C(O[C@H]2O[C@H](C)[C@@H](O)[C@H](N)[C@@H]2O)CC2O[C@](O)(CC(O)C(O)CCC(O)CC(O)CC(O)CC(=O)O[C@H]1C)CC(O)C2C(=O)O (stereo partly shown) [Nystatin, reference compound] |  |  |  |  |  |  |  |  |  |  |  |  |  |  |  | MIC [4, 21]: 2.1^N µg/ml; MIC [5, 21]: 2.1^N µg/ml; MIC [6, 21]: 2.1^N µg/ml
6 | C/C(=C\c1csc(C)n1)[C@@H]1C[C@@H]2O[C@]2(C)CCC[C@H](C)[C@H](O)[C@@H](C)C(=O)C(C)(C)[C@@H](O)CC(=O)O1 [Epothilone B, reference compound] |  |  |  |  |  |  |  |  |  |  |  |  |  |  |  | pIC50 [7]: 10.15; pIC50 ([9]; A549): 10.30; pIC50 [11]: 10.05; pIC50 [12]: 10.05; pIC50 [13]: 10.22
7 | Gentamycin [reference compound] |  |  |  |  |  |  |  |  |  |  |  |  |  |  |  | MIC [1, 21]: 0.21^G µg/ml
8 | Cc1c2c(c3c(C)c(O)c(C(=O)O)c(O)c3c1O)COC2 [Compound 1, epicoccofuran A] | > 67 | > 67 | 33.3 (≈ 115 µM) | > 67 | > 67 | > 67 |  | 4.80 |  | 4.92 |  |  |  | weak anticancer activity |  | antimicrobial activity against Bacillus subtilis (in words) [3]: moderate activity; also recorded: moderate antimicrobial activities; potency against Bacillus relative to the standard oxytetracycline [3]: almost half; antimicrobial activity against the remaining strains (in words) [15]: no potential activity
9 | COC1OC(C2OCc3c(C)c(O)c(O)c(O)c32)c2c(O)c(O)c(O)c(C)c21 (stereo not shown) [Compound 2, flavimycin C] | > 67 | > 67 | 33.3 (≈ 84.9 µM) | > 67 | > 67 | > 67 | 5.57 | 5.11 | 5.04 | 5.17 | 4.77 | < 4.00 | 5.09 | highest potency; also recorded: promising anticancer activities | 4.92 to 5.89 | antimicrobial activity against Bacillus subtilis (in words) [3]: moderate activity; also recorded: moderate antimicrobial activities; potency against Bacillus relative to the standard oxytetracycline [3]: almost half; sensitivity of PC-3 (in words) [12]: insensitive; antimicrobial activity against the remaining strains (in words) [15]: no potential activity
10 | Cc1c(O)c(O)c(O)c(C=O)c1-c1cc2c(C=O)c(C)c(O)c(O)c2o1 [Compound 4, epicoccolide B] | > 67 | > 67 | 66.6 (≈ 186 µM) | > 67 | > 67 | > 67 |  | 4.68 |  | 4.72 |  |  |  | weak anticancer activity |  | 
11 | Cc1c(O)c(O)c(O)c2c1C(=O)OC2 [Compound 5, epicoccone] | > 67 | > 67 | > 67 | > 67 | > 67 | > 67 | 5.42 | 5.21 | 5.17 | 5.12 | 5.09 | 5.10 | 5.14 | active against all tested cell lines; also recorded: promising anticancer activities | 4.92 to 5.89 | 
